In patent publication US5286729A, “Angiotensin II receptor blocking 2,3,6 substituted quinazolinones” (American Cyanamid Company, priority 1993, dated 1994):
Several values for one entry are separate records, joined by “and”; a condition that tells them apart may be missing. Identical values can stand only once.

System: ANGIOTENSIN II (AII) VASOPRESSOR RESPONSE
Assay: AII Challenge: % inhibition (angiotensin blockage) of angiotensin II vasopressor response in conscious SHR
Type: in vivo, rat (Male Okamoto-Aoki SHR)
Settings: for Response After AII / Change / Control Before AII: individual rats
Description: By administering a compound of this invention to a rat, and then challenging with angiotensin II, a blockage of the vasopressor response is realized. The results of this test on representative compounds of this invention are shown in Table V. Conscious Male Okamoto-Aoki SHR, 16-20 weeks old, weighing approximately 330 g are purchased from Charles River Labs (Wilmington, MA). Conscious rats are restrained in a supine position with elastic tape. The area at the base of the tail is locally anesthetized by subcutaneous infiltration with 2% procaine. The central caudal artery and vein are isolated, and a cannula made of polyethylene (PE) 10-20 tubing (fused together by heat) is passed into the lower abdominal aorta and vena cava, respectively. The cannula is secured, heparinized (1,000 I.U./ml), sealed and the wound is closed. The animals are placed in plastic restraining cages in an upright position. The cannula is attached to a Statham P23Db pressure transducer, and pulsatile blood pressure is recorded to 10-15 minutes with a Gould Brush recorder. (Chan et al., (Drug Development Res., 18:75-94, 1989). Angiotensin II (human sequence, Sigma Chem. Co., St. Louis, MO) of 0.05 and 0.1 ug/kg i.v. is injected into all rats (predosing repsonse). Then a test compound, vehicle or a known angiotensin II antagonist is administered i.v., i.p. or orally to each set of rats. The two doses of angiotensin II are given to each rat again at 30, 60, 90, 120, 180, 240 and 300 minutes post dosing the compound or vehicle. The vasopressor response of angiotensin II is measured for the increase in systolic blood pressure in mmHg. The percentage of antagonism or blockade of the vasopressor response of angiotensin II by a compound is calculated using the vasopressor response (increase in systolic blood pressure) of angiotensin II of each rat predosing the compound as 100%. A compound is considered active if at 30 mg/kg i.v. it antagonized at least 50% of the response.

[1] = 5 mg/kg IV, AII 0.05 mcg/kg IV, 30 min post dose
[2] = 5 mg/kg IV, AII 0.05 mcg/kg IV, 30 min post dose, monohydrochloride
[3] = 5 mg/kg IV, AII 0.05 mcg/kg IV, 60 min post dose
[4] = 5 mg/kg IV, AII 0.05 mcg/kg IV, 60 min post dose, monohydrochloride
[5] = 5 mg/kg IV, AII 0.05 mcg/kg IV, 90 min post dose
[6] = 5 mg/kg IV, AII 0.05 mcg/kg IV, 90 min post dose, monohydrochloride
[7] = 5 mg/kg IV, AII 0.05 mcg/kg IV, 120 min post dose
[8] = 5 mg/kg IV, AII 0.05 mcg/kg IV, 120 min post dose, monohydrochloride
[9] = 5 mg/kg IV, AII 0.05 mcg/kg IV, 180 min post dose
[10] = 5 mg/kg IV, AII 0.05 mcg/kg IV, 180 min post dose, monohydrochloride
[11] = 5 mg/kg IV, AII 0.1 mcg/kg IV, 30 min post dose
[12] = 5 mg/kg IV, AII 0.1 mcg/kg IV, 30 min post dose, monohydrochloride
[13] = 5 mg/kg IV, AII 0.1 mcg/kg IV, 60 min post dose
[14] = 5 mg/kg IV, AII 0.1 mcg/kg IV, 60 min post dose, monohydrochloride
[15] = 5 mg/kg IV, AII 0.1 mcg/kg IV, 90 min post dose
[16] = 5 mg/kg IV, AII 0.1 mcg/kg IV, 90 min post dose, monohydrochloride
[17] = 5 mg/kg IV, AII 0.1 mcg/kg IV, 120 min post dose
[18] = 5 mg/kg IV, AII 0.1 mcg/kg IV, 120 min post dose, monohydrochloride
[19] = 5 mg/kg IV, AII 0.1 mcg/kg IV, 180 min post dose
[20] = 5 mg/kg IV, AII 0.1 mcg/kg IV, 180 min post dose, monohydrochloride
[21] = 10 mg/kg P.O., AII 0.05 mcg/kg IV, 30 min post dose
[22] = 10 mg/kg P.O., AII 0.05 mcg/kg IV, 30 min post dose, monohydrochloride
[23] = 10 mg/kg P.O., AII 0.05 mcg/kg IV, 60 min post dose
[24] = 10 mg/kg P.O., AII 0.05 mcg/kg IV, 60 min post dose, monohydrochloride
[25] = 10 mg/kg P.O., AII 0.05 mcg/kg IV, 90 min post dose
[26] = 10 mg/kg P.O., AII 0.05 mcg/kg IV, 90 min post dose, monohydrochloride
[27] = 10 mg/kg P.O., AII 0.05 mcg/kg IV, 120 min post dose
[28] = 10 mg/kg P.O., AII 0.05 mcg/kg IV, 120 min post dose, monohydrochloride
[29] = 10 mg/kg P.O., AII 0.05 mcg/kg IV, 180 min post dose
[30] = 10 mg/kg P.O., AII 0.05 mcg/kg IV, 180 min post dose, monohydrochloride
[31] = 10 mg/kg P.O., AII 0.1 mcg/kg IV, 30 min post dose
[32] = 10 mg/kg P.O., AII 0.1 mcg/kg IV, 30 min post dose, monohydrochloride
[33] = 10 mg/kg P.O., AII 0.1 mcg/kg IV, 60 min post dose
[34] = 10 mg/kg P.O., AII 0.1 mcg/kg IV, 90 min post dose
[35] = 10 mg/kg P.O., AII 0.1 mcg/kg IV, 120 min post dose
[36] = 10 mg/kg P.O., AII 0.1 mcg/kg IV, 120 min post dose, monohydrochloride
[37] = 10 mg/kg P.O., AII 0.1 mcg/kg IV, 180 min post dose
[38] = 10 mg/kg P.O., AII 0.1 mcg/kg IV, 180 min post dose, monohydrochloride

Q: What does the source list for `CCCCc1nc2ccc(COc3ccccn3)cc2c(=O)n1Cc1ccc(-c2ccccc2-c2nnn[nH]2)cc1.Cl` [Example 12, 2-Butyl-6-[(2-pyridinyloxy)methyl]-3-[[2'-(1H-tetrazol-5-yl)[1,1'-biphenyl]-4-yl]methyl]-4(3H)-quinazolinone monohydrochloride]?
A: % Inhibition [1]: 62%; Average Change [1]: 12.5 mmHg; Response After AII [1]: 195 mmHg; Change [2]: 10 mmHg and 15 mmHg; Control Before AII [2]: 185 mmHg and 180 mmHg; % Inhibition [3]: 92%; Average Change [3]: 2.5 mmHg; Control Before AII [3]: 175 mmHg; Response After AII [3]: 180 mmHg; Change [4]: 0 mmHg and 5 mmHg; Response After AII [4]: 175 mmHg; % Inhibition [5]: 69%; Average Change [5]: 10 mmHg; Change [5]: 10 mmHg; Response After AII [5]: 170 mmHg; Control Before AII [6]: 160 mmHg and 165 mmHg; Response After AII [6]: 175 mmHg; % Inhibition [7]: 77%; Average Change [7]: 7.5 mmHg; Control Before AII [7]: 165 mmHg; Response After AII [7]: 170 mmHg; Change [8]: 10 mmHg and 5 mmHg; Response After AII [8]: 175 mmHg; % Inhibition [9]: 66%; Average Change [9]: 11 mmHg; Change [10]: 7 mmHg and 15 mmHg; Control Before AII [10]: 165 mmHg and 155 mmHg; Response After AII [10]: 172 mmHg and 170 mmHg; % Inhibition [11]: 65%; Average Change [11]: 15 mmHg; Control Before AII [11]: 185 mmHg; Response After AII [11]: 195 mmHg; Change [12]: 10 mmHg and 20 mmHg; Control Before AII [12]: 175 mmHg; % Inhibition [13]: 71%; Average Change [13]: 12.5 mmHg; Response After AII [13]: 185 mmHg; Change [14]: 15 mmHg and 10 mmHg; Control Before AII [14]: 170 mmHg and 175 mmHg; % Inhibition [15]: 76%; Average Change [15]: 10 mmHg; Change [15]: 10 mmHg; Control Before AII [16]: 160 mmHg and 170 mmHg; Response After AII [16]: 170 mmHg and 180 mmHg; % Inhibition [17]: 65%; Average Change [17]: 15 mmHg; Control Before AII [17]: 165 mmHg; Change [18]: 20 mmHg and 10 mmHg; Response After AII [18]: 185 mmHg and 175 mmHg; % Inhibition [19]: 51%; Average Change [19]: 21 mmHg; Control Before AII [19]: 160 mmHg; Change [20]: 20 mmHg and 22 mmHg; Response After AII [20]: 180 mmHg and 182 mmHg; % Inhibition [21]: 56%; Average Change [21]: 17.5 mmHg; Control Before AII [21]: 185 mmHg; Response After AII [21]: 210 mmHg; Change [22]: 25 mmHg and 10 mmHg; Control Before AII [22]: 200 mmHg; % Inhibition [23]: 44%; Average Change [23]: 22.5 mmHg; Control Before AII [23]: 185 mmHg; Response After AII [23]: 220 mmHg; Change [24]: 25 mmHg and 20 mmHg; Control Before AII [24]: 195 mmHg; Response After AII [24]: 205 mmHg; % Inhibition [25]: 59%; Average Change [25]: 16.5 mmHg; Control Before AII [25]: 195 mmHg; Change [26]: 30 mmHg and 3 mmHg; Control Before AII [26]: 190 mmHg; Response After AII [26]: 220 mmHg and 198 mmHg; % Inhibition [27]: 69%; Average Change [27]: 12.5 mmHg; Control Before AII [27]: 210 mmHg; Response After AII [27]: 230 mmHg; Change [28]: 20 mmHg and 5 mmHg; Response After AII [28]: 215 mmHg; % Inhibition [29]: 50%; Average Change [29]: 20 mmHg; Control Before AII [29]: 185 mmHg; Change [30]: 25 mmHg and 15 mmHg; Response After AII [30]: 210 mmHg and 200 mmHg; % Inhibition [31]: 34%; Average Change [31]: 27.5 mmHg; Response After AII [31]: 220 mmHg; Change [32]: 35 mmHg and 20 mmHg; Control Before AII [32]: 185 mmHg and 200 mmHg; % Inhibition [33]: 16%; Average Change [33]: 35 mmHg; Change [33]: 35 mmHg; Control Before AII [33]: 185 mmHg; Response After AII [33]: 220 mmHg; % Inhibition [34]: 28%; Average Change [34]: 30 mmHg; Change [34]: 30 mmHg; Control Before AII [34]: 190 mmHg; Response After AII [34]: 220 mmHg; % Inhibition [35]: 52%; Average Change [35]: 20 mmHg; Control Before AII [35]: 205 mmHg; Response After AII [35]: 235 mmHg; Change [36]: 30 mmHg and 10 mmHg; Response After AII [36]: 215 mmHg; % Inhibition [37]: 40%; Average Change [37]: 25 mmHg; Response After AII [37]: 210 mmHg; Change [38]: 35 mmHg and 15 mmHg; Control Before AII [38]: 190 mmHg and 195 mmHg; Response After AII [38]: 225 mmHg
